Results published in ChEMBL document CHEMBL4602703, “Lead Optimization of a Pyrrole-Based Dihydroorotate Dehydrogenase Inhibitor Series for the Treatment of Malaria” (J Med Chem, 2020).
In brackets after ≈: the same amount, converted by molar mass.

How the values were obtained:
[1] = Protein binding in human liver microsomes by LC-MS analysis based ultracentrifugation assay; assay type: ADME, Microsome; settings: read-out: PB (converted)
[2] = AUC (0 to infinity) in Swiss mouse at 18.3 mg/kg, po via gavage measured up to 24 hrs by UPLC-MS analysis; assay type: ADME, organism-based; design: dose 18.3 mg/kg, time infinity, route oral; settings: in vivo
Albumin = Albumin (Homo sapiens, UniProt P02768); assay: Binding affinity to albumin (unknown origin) in ALBUMAX medium; assay type: ADME; settings: read-out: PB (converted)
Sequence of Albumin (P02768 whole entry): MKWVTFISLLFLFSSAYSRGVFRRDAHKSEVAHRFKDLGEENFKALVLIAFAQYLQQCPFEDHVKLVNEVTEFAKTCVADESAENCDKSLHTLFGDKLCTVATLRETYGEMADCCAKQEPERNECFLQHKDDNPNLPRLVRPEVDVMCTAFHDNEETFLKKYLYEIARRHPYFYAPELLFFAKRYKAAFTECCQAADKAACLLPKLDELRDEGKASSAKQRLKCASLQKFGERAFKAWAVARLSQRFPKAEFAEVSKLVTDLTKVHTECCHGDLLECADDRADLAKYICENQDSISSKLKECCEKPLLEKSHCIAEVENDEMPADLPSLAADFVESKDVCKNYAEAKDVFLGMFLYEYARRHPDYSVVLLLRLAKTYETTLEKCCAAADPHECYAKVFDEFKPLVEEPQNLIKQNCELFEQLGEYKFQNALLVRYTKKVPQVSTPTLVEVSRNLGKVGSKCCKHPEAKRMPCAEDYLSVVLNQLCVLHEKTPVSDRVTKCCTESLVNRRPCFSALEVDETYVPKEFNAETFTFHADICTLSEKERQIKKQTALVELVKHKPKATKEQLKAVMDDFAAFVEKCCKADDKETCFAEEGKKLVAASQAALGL

Cytochrome P450 2D6 [3] = target: T1, Cytochrome P450 2D6 (Homo sapiens, UniProt P10635); assay: Inhibition of CYP2D6 in human liver microsomes using dextromethorphan as substrate measured for 10 to 30 mins in presence of NADPH regenerating system by UPLC-MS analysis; assay type: ADME
T1 sequence (P10635 whole entry): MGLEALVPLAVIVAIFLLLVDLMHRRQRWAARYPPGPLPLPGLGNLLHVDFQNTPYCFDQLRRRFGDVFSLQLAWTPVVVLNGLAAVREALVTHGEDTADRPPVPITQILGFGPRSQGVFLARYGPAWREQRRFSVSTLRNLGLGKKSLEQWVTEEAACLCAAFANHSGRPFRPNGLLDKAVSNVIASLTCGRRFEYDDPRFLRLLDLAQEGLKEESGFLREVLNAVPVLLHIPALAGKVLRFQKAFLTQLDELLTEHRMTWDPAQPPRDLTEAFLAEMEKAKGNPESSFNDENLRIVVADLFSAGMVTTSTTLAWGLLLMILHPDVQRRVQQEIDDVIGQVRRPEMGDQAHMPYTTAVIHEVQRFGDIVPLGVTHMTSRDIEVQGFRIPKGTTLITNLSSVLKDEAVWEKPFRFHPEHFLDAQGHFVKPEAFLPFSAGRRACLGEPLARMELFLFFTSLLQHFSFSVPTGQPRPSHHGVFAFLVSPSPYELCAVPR

Cytochrome P450 2D6 [4] = target: T1, Cytochrome P450 2D6; assay: Time-dependent inhibition of CYP2D6 in human liver microsomes using dextromethorphan as substrate in absence of NADPH regenerating system by UPLC-MS analysis; assay type: ADME
CYP3A4/5 [5] = target: T2, CYP3A4/5 (Homo sapiens, UniProt P08684+P20815); assay: in vitro; settings: liver microsomes, probe testosterone
CYP3A4/5 [6] = target: T2, CYP3A4/5; assay: in vitro; settings: liver microsomes, probe midazolam
[7] = Cmax in NOD-SCID IL2Rgamma null mouse blood infected with Plasmodium falciparum 3D70087/N9 at 50 mg/kg, po qd for 4 days starting from 3 days post infection and measured after 24 hrs post dose by LC-MS/MS analysis
[8] = Cmax in NOD-SCID IL2Rgamma null mouse blood infected with Plasmodium falciparum 3D70087/N9 at 10 mg/kg, po qd for 4 days starting from 3 days post infection and measured after 24 hrs post dose by LC-MS/MS analysis; assay type: ADME, organism-based; design: dose 10 mg/kg, route oral
Cytochrome P450 1A2 [9] = target: T3, Cytochrome P450 1A2 (Homo sapiens, UniProt P05177); assay: Time-dependent inhibition of CYP1A2 in human liver microsomes using phenacetin as substrate in presence of NADPH regenerating system by UPLC-MS analysis; assay type: ADME
T3 sequence (P05177 whole entry): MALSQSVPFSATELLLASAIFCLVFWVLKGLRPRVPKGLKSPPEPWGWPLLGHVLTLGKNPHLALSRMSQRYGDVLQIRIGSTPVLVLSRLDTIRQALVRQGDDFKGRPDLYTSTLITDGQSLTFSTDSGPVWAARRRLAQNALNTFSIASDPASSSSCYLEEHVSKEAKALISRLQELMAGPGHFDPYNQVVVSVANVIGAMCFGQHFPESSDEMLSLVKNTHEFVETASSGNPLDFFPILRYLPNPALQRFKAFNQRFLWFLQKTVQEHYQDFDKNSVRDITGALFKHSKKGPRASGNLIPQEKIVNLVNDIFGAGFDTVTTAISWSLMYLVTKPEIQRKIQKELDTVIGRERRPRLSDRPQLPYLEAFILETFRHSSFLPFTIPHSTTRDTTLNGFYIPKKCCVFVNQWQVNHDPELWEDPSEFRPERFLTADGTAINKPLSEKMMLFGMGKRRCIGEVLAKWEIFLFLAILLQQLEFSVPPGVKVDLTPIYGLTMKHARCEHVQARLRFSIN

Cytochrome P450 1A2 [10] = target: T3, Cytochrome P450 1A2; assay: Inhibition of CYP1A2 in human liver microsomes using phenacetin as substrate measured for 10 to 30 mins in presence of NADPH regenerating system by UPLC-MS analysis; assay type: ADME
[11] = AUC (0 to infinity) in Sprague-Dawley rat at 3 mg/kg, po administered via gavage measured up to 24 hrs by LC-MS analysis; assay type: ADME, organism-based; design: dose 3 mg/kg, route oral, time infinity; settings: in vivo
CYP3A4/5 [12] = target: T2, CYP3A4/5; assay: in vitro; settings: liver microsomes, probe midazolam; remark: listed apart in the source
[13] = target: Potassium voltage-gated channel subfamily A member 5 (Homo sapiens, UniProt P22460); assay: Inhibition of human Kv1.5 by IonWorks patch clamp electrophysiology assay
Sequence of Potassium voltage-gated channel subfamily A member 5 (P22460 whole entry): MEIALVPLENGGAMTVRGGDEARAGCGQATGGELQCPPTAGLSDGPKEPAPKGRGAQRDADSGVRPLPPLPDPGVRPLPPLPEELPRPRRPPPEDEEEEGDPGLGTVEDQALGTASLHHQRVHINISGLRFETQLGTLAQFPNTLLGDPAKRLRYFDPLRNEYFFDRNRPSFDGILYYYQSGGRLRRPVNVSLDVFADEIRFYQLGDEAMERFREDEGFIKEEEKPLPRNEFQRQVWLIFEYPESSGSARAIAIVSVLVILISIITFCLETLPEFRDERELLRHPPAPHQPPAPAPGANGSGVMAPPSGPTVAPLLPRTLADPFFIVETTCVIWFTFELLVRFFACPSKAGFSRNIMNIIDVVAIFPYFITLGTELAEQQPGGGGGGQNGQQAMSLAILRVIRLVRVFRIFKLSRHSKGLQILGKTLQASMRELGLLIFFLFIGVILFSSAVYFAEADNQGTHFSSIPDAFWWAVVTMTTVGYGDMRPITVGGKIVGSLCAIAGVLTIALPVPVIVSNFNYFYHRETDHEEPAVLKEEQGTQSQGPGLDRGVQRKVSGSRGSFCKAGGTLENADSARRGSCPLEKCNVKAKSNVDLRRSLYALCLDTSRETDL

L1210 = assay: Cytotoxicity against mouse L1210 cells assessed as reduction in cell viability; assay type: cell-based
[14] = Cmax in Sprague-Dawley rat at 3 mg/kg, po administered via gavage measured up to 24 hrs by LC-MS analysis; assay type: ADME, organism-based; design: dose 3 mg/kg, route oral; settings: in vivo
Cytochrome P450 2C9 = Cytochrome P450 2C9 (Homo sapiens, UniProt P11712); assay: Time-dependent inhibition of CYP2C9 in human liver microsomes using tolbutamide as substrate in presence of NADPH regenerating system by UPLC-MS analysis; assay type: ADME
Sequence of Cytochrome P450 2C9 (P11712 whole entry): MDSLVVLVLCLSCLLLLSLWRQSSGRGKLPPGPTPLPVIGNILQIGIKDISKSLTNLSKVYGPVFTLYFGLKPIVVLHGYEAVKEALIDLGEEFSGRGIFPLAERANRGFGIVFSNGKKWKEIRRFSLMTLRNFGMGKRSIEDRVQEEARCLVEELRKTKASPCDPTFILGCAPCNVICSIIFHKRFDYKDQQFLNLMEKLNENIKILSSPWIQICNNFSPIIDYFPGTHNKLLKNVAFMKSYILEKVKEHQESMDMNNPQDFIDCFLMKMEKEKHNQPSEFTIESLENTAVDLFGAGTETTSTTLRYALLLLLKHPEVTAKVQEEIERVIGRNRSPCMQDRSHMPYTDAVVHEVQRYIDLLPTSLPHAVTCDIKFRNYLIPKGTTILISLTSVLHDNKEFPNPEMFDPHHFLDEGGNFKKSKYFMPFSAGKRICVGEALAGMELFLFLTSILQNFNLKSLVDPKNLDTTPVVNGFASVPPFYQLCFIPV

physchem = settings: octanol/water, pH 7.4
Cytochrome P450 2C19 = Cytochrome P450 2C19 (Homo sapiens, UniProt P33261); assay: Time-dependent inhibition of CYP2C19 in human liver microsomes using (S)-mephenytoin as substrate in presence of NADPH regenerating system by UPLC-MS analysis; assay type: ADME
Sequence of Cytochrome P450 2C19 (P33261 whole entry): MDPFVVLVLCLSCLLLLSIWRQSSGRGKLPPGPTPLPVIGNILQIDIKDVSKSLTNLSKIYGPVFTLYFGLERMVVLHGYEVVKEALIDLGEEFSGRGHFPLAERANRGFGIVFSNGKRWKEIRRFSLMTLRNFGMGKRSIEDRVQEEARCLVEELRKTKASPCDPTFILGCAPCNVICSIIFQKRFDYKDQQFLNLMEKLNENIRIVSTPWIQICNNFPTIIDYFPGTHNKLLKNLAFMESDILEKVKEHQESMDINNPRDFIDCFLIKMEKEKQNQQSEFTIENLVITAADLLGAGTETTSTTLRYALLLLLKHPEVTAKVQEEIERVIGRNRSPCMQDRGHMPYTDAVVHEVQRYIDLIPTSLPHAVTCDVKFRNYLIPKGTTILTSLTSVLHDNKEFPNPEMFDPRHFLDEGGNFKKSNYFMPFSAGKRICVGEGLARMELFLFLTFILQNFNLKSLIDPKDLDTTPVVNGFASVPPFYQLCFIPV

[15] = buffer, pH 7.4
[16] = AUC (0 to infinity) in Swiss mouse at 50 mg/kg, po via gavage measured up to 24 hrs by UPLC-MS analysis; assay type: ADME, organism-based; design: dose 50 mg/kg, route oral, time infinity; settings: in vivo
[17] = Cmax in Swiss mouse blood at 18.3 mg/kg, po via gavage measured up to 24 hrs by UPLC-MS analysis; assay type: ADME, organism-based; design: dose 18.3 mg/kg, route oral; settings: in vivo
[18] = AUC (0 to infinity) in Swiss mouse at […], iv administered as bolus dose measured up to 24 hrs by UPLC-MS analysis; assay type: ADME, organism-based; design: dose 2.8 mg/kg, route intravenous, time infinity; settings: in vivo
[19] = Oral bioavailability in Sprague-Dawley rat at 33 mg/kg administered via gavage measured up to 24 hrs by LC-MS analysis; assay type: ADME, organism-based; settings: in vivo
[20] = Volume of drug distribution at steady state in Swiss mouse at […], iv administered as bolus dose measured up to 24 hrs by UPLC-MS analysis; assay type: ADME, organism-based; settings: in vivo
[21] = Apparent half life in Sprague-Dawley rat at […], iv administered as infusion for 10 mins and measured up to 24 hrs by LC-MS analysis; assay type: ADME, organism-based; settings: in vivo, read-out: t1/2(app) (converted)
[22] = Protein binding in DMEM medium containing 10% fetal calf serum by LC-MS analysis based ultracentrifugation assay; assay type: ADME, cell-free, Bos taurus; settings: cattle, DMEM medium containing 10% fetal calf serum; read-out: PB (converted)
CYP3A4/5 [23] = target: T2, CYP3A4/5; assay: in vitro; settings: liver microsomes, probe midazolam; remark: listed apart in the source
[24] = Toxicity in Plasmodium falciparum 3D70087/N9 infected NOD-SCID IL2Rgamma null mouse at 50 mg/kg, po administered once daily for 4 days measured 24 hrs post dose; assay type: organism-based; settings: in vivo
[25] = Toxicity in Plasmodium falciparum 3D70087/N9 infected NOD-SCID IL2Rgamma null mouse assessed as death at 10 mg/kg, po administered once daily for 4 days measured 24 hrs post dose; assay type: organism-based; settings: in vivo
[26] = target: Voltage-gated inwardly rectifying potassium channel KCNH2 (Homo sapiens, UniProt Q12809); assay: Inhibition of human ERG by IonWorks patch clamp electrophysiology assay
Sequence of Voltage-gated inwardly rectifying potassium channel KCNH2 (Q12809 whole entry): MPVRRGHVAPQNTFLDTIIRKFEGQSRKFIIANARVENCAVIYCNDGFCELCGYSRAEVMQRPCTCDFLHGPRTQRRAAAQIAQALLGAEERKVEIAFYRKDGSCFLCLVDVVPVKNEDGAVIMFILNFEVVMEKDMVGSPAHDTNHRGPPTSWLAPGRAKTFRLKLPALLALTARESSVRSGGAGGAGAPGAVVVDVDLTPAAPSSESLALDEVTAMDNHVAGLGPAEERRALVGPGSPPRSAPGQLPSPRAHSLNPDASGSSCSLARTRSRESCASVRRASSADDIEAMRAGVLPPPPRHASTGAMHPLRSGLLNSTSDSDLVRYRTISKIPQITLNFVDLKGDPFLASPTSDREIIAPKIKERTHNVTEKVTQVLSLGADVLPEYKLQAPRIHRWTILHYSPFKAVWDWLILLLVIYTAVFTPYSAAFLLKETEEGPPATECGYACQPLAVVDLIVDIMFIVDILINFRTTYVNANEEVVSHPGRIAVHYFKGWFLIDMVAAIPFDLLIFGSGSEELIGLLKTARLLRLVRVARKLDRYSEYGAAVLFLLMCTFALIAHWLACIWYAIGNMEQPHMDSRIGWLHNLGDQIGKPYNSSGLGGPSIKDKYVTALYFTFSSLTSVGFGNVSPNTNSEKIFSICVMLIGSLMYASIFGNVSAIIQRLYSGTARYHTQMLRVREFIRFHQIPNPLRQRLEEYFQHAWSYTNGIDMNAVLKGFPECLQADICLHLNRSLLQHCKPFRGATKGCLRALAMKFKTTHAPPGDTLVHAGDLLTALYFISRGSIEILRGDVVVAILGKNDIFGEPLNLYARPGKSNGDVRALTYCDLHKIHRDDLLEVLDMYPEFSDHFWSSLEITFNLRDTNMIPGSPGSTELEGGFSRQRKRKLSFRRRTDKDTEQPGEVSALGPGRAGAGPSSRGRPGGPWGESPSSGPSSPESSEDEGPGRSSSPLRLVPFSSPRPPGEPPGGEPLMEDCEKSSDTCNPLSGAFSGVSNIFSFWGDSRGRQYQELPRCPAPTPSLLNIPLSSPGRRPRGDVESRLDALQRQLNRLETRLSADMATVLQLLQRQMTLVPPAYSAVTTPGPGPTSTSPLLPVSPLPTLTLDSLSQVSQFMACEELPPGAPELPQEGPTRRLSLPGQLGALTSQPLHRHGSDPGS

[27] = Cmax in Swiss mouse blood at 50 mg/kg, po via gavage measured up to 24 hrs by UPLC-MS analysis; assay type: ADME, organism-based; design: dose 50 mg/kg, route oral; settings: in vivo

Work on `Cc1c(Cc2ccc(C(F)(F)F)nc2)c[nH]c1C(=O)NC1CC1` yielded a fraction unbound [1] of 0.701, an AUC [2] of 55.6 µM·h and a fraction unbound (Albumin) of 0.482. The IC50 (Cytochrome P450 2D6 [3]) was > 20 µM, the TDI (Cytochrome P450 2D6 [4]) was “Active” and the IC50 (CYP3A4/5 [5]) was 5.5 µM. For the same compound, the IC50 (CYP3A4/5 [6]) was 5.5 µM, the Cmax [7] was 7.81 µM and the Cmax [8] was 0.6 µM. For the same compound, the TDI (Cytochrome P450 1A2 [9]) was “Not Active”, the IC50 (Cytochrome P450 1A2 [10]) was > 20 µM and the AUC [11] was 5.1 µM·h. For the same compound, the IC50 (CYP3A4/5 [12]) was > 20 µM, the EC50 [13] was > 11 µM and the CC50 (L1210) was > 50 µM. For the same compound, the Cmax [14] was 1.7 µM, the TDI (Cytochrome P450 2C9) was “Not Active” and the logD (physchem) was 2.8. For the same compound, the TDI (Cytochrome P450 2C19) was “Not Active”, the solubility [15] was 45.6 µg/mL (≈ 141 µM) and the AUC [16] was 220 µM·h. The Cmax [17] was 6.7 µM, the AUC [18] was 5.6 µM·h and the F [19] was > 100%. It also gave a Vdss [20] of 1.2 L/kg, a half-life [21] of 14.6 h and a fraction unbound [22] of 0.685. For the same compound, the IC50 (CYP3A4/5 [23]) was > 20 µM, the Activity [24] was “Toxic” and the Activity [25] was “Toxic”. For the same compound, the EC50 [26] was > 33 µM and the Cmax [27] was 33.8 µM.
